Source: ChEMBL document CHEMBL3774380, “Development of Noviomimetics as C-Terminal Hsp90 Inhibitors” (ACS Med Chem Lett, 2016)
The source made the active and inactive calls. No cut-off for these calls is given here.

What was measured:
Rattus norvegicus [1] = species on record: Rattus norvegicus; assay: Inhibition of Hsp90 in rat 50B11 cells expressing human HSPA1A gene assessed as increase in Hsp70 level at 10 to 1000 nM after 16 hrs by luciferase reporter assay; format: cell-based
Rattus norvegicus [2] = species on record: Rattus norvegicus; assay: Inhibition of Hsp90 in rat 50B11 cells assessed as increase in Hsp70 level at 0.5 to 1000 nM after 24 hrs by Western blot method; format: cell-based

Structure (SMILES) | inhibition (Rattus norvegicus [1]) | inhibition (Rattus norvegicus [2])
CC(=O)NCCc1ccc(OC2CCCC(O)C2)cc1-c1cccc(F)c1 (mixture of isomers) | Active | –
CC(=O)NCCc1ccc(OC2OCCC2O)cc1-c1cccc(F)c1 (mixture of isomers) | inactive | –
CC(=O)NCCc1ccc(OC2C=CCCC2)cc1-c1cccc(F)c1 (racemic) | inactive | –
CC(=O)NCCc1ccc(O[C@@H]2CC[C@@H](OCc3ccccc3)C2)cc1-c1cccc(F)c1 | inactive | –
CC(=O)NCCc1ccc(O[C@H]2CC[C@@H](OCc3ccccc3)C2)cc1-c1cccc(F)c1 | inactive | –
CC(=O)NCCc1ccc(OC2C[C@H](O)CO2)cc1-c1cccc(F)c1 (mixture of isomers) | inactive | –
CC(=O)NCCc1ccc(OC2CCC(O)CC2)cc1-c1cccc(F)c1 (mixture of isomers) | Active | –
CC(=O)NCCc1ccc(OC2C=CCC(C)(C)C2)cc1-c1cccc(F)c1 (racemic) | inactive | –
CC(=O)NCCc1ccc(OC2OC[C@@H](O)[C@H]2O)cc1-c1cccc(F)c1 (mixture of isomers) | inactive | –
CC(=O)NCCc1ccc(OC2CCCC(OCc3ccccc3)C2)cc1-c1cccc(F)c1 (mixture of isomers) | Active | –
CC(=O)NCCc1ccc(OC2CCC(OCc3ccccc3)CC2)cc1-c1cccc(F)c1 (mixture of isomers) | Active | Active
CO[C@@H]1[C@@H](O)[C@@H](O)[C@H](Oc2ccc(CCNC(C)=O)c(-c3cccc(F)c3)c2)OC1(C)C | – | Active
